In ChEMBL document CHEMBL4177591, “Synthesis and evaluation of the inhibitory activity of the four stereoisomers of the potent and selective human γ-glutamyl transpeptidase inhibitor GGsTop” (Bioorg Med Chem Lett, 2017):
Activity calls are given as the source filed them. The calls are words filed in the database; no cut-off is given here.

Assays:
[1] = species: Homo sapiens; test: Inhibition of human GGT assessed as inactivation rate constant using gamma-Glu-AMC as substrate measured for 10 mins by fluorescence assay
[2] = species: Homo sapiens; test: Inhibition of human GGT at 0.1 mM using gamma-Glu-AMC as substrate measured for 10 mins by fluorescence assay

CO[P@@](=O)(CC[C@H](N)C(=O)O)Oc1cccc(CC(=O)O)c1
inhibition [1]: inactive

CO[P@@](=O)(CC[C@@H](N)C(=O)O)Oc1cccc(CC(=O)O)c1
inhibition [1]: inactive

CO[P@](=O)(CC[C@@H](N)C(=O)O)Oc1cccc(CC(=O)O)c1
K [2]: 21.5 M⁻¹ s⁻¹

COP(=O)(CCC(N)C(=O)O)Oc1cccc(CC(=O)O)c1 (stereo not given)
K [1]: 51 M⁻¹ s⁻¹

CO[P@](=O)(CC[C@H](N)C(=O)O)Oc1cccc(CC(=O)O)c1
K [2]: 174 M⁻¹ s⁻¹
